PubChem BioAssay AID330 (DTP/NCI, 2004)
Values joined by “and” are separate entries in the source; they are usually repeats but may differ in a detail not shown here. Equal entries are not always repeated. Inconclusive results and toxic doses are left out. How the source made its calls: active means survival T/C of 150% or more; inactive means T/C below 125% in these data.

Tested on: P388 leukemia ip, CD2F1 mice, survival T/C
Assay: NCI In Vivo Anticancer Drug Screen. Data for tumor model P388 Leukemia (intraperitoneal) in CD2F1 (CDF1) mice
Details: endpoint: median survival time, higher = longer survival
How it was run: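 Mice carrying the transplanted tumor received test compound or vehicle. Survival was recorded in each group, and the value is the treated-group measurement divided by that of the vehicle-treated control group.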

[1] = dose: 50.0 mg/kg/injection, schedule: Q01DX005 (ip), vehicle: saline
[2] = dose: 100.0 mg/kg/injection, schedule: Q01DX005 (ip), vehicle: saline
[3] = dose: 12.5 mg/kg/injection, schedule: Q01DX009 (ip), vehicle: saline with Tween-80
[4] = dose: 25.0 mg/kg/injection, schedule: Q01DX009 (ip), vehicle: saline with Tween-80
[5] = dose: 50.0 mg/kg/injection, schedule: Q01DX009 (ip), vehicle: saline with Tween-80
[6] = dose: 100.0 mg/kg/injection, schedule: Q01DX009 (ip), vehicle: saline with Tween-80
[7] = dose: 6.25 mg/kg/injection, schedule: Q01DX009 (ip), vehicle: saline
[8] = dose: 12.5 mg/kg/injection, schedule: Q01DX009 (ip), vehicle: saline
[9] = dose: 25.0 mg/kg/injection, schedule: Q01DX009 (ip), vehicle: saline
[10] = dose: 100.0 mg/kg/injection, schedule: Q04DX003 (ip), vehicle: saline
[11] = dose: 200.0 mg/kg/injection, schedule: Q01DX005 (ip), vehicle: saline
[12] = dose: 60.0 mg/kg/injection, schedule: Q01DX005 (ip), vehicle: Klucel (hydroxypropylcellulose) (HPC)
[13] = dose: 120.0 mg/kg/injection, schedule: Q01DX005 (ip), vehicle: Klucel (hydroxypropylcellulose) (HPC)
[14] = dose: 240.0 mg/kg/injection, schedule: Q01DX005 (ip), vehicle: Klucel (hydroxypropylcellulose) (HPC)
[15] = dose: 50.0 mg/kg/injection, schedule: Q01DX009 (ip), vehicle: saline

Measured: T/C

C[n+]1c(-c2cccc3ccccc23)c2cc([N+](=O)[O-])ccc2c2ccccc21
inactive: dose: 4.0 mg/kg/injection, schedule: Q01DX009 (ip), vehicle: Klucel (hydroxypropylcellulose) (HPC) 114 % of control | dose: 8.0 mg/kg/injection, schedule: Q01DX009 (ip), vehicle: Klucel (hydroxypropylcellulose) (HPC) 115 % of control | dose: 8.0 mg/kg/injection, schedule: Q04DX003 (ip), vehicle: Klucel (hydroxypropylcellulose) (HPC) 98 % of control | dose: 16.0 mg/kg/injection, schedule: Q01DX009 (ip), vehicle: Klucel (hydroxypropylcellulose) (HPC) 119 % of control | dose: 16.0 mg/kg/injection, schedule: Q04DX003 (ip), vehicle: Klucel (hydroxypropylcellulose) (HPC) 108 % of control | dose: 32.0 mg/kg/injection, schedule: Q01DX009 (ip), vehicle: Klucel (hydroxypropylcellulose) (HPC) 114 % of control | dose: 32.0 mg/kg/injection, schedule: Q04DX003 (ip), vehicle: Klucel (hydroxypropylcellulose) (HPC) 114 % of control | dose: 64.0 mg/kg/injection, schedule: Q04DX003 (ip), vehicle: Klucel (hydroxypropylcellulose) (HPC) 106 % of control

O=C1C(O)=C(Cl)C(=O)C(O)=C1Cl
inactive: dose: 12.5 mg/kg/injection, schedule: Q01DX005 (ip), vehicle: saline 111 % of control | dose: 25.0 mg/kg/injection, schedule: Q01DX005 (ip), vehicle: saline 101 % of control | [1] 110 % of control | [2] 90 % of control

COc1ccc(C(O)(CS(C)=O)c2cccs2)cc1 (configuration not stated)
inactive: [3] 94 % of control and 97 % of control | [4] 100 % of control and 102 % of control | [5] 110 % of control and 96 % of control | [6] 91 % of control and 96 % of control

C=C1C(=O)OC2C1CCC1(C)CCCC(=C)C21 (configuration not stated)
inactive: dose: 2.5 mg/kg/injection, schedule: Q01DX009 (ip), vehicle: Klucel (hydroxypropylcellulose) (HPC) 93 % of control | dose: 5.0 mg/kg/injection, schedule: Q01DX009 (ip), vehicle: Klucel (hydroxypropylcellulose) (HPC) 96 % of control | dose: 10.0 mg/kg/injection, schedule: Q01DX009 (ip), vehicle: Klucel (hydroxypropylcellulose) (HPC) 92 % of control | dose: 20.0 mg/kg/injection, schedule: Q01DX009 (ip), vehicle: Klucel (hydroxypropylcellulose) (HPC) 96 % of control

COc1ccc(C#CC2(O)c3ccccc3C(O)(C#Cc3ccc(OC)cc3)c3ccccc32)cc1 (configuration not stated)
inactive: [5] 98 % of control | [6] 98 % of control

[Cl][Al]([Cl])[Cl]
inactive: [7] 100 % of control | dose: 12.5 mg/kg/injection, schedule: Q01DX009 (ip), vehicle: saline sonified 100 % of control | [8] 100 % of control | dose: 25.0 mg/kg/injection, schedule: Q01DX009 (ip), vehicle: saline sonified 90 % of control | [9] 95 % of control | dose: 50.0 mg/kg/injection, schedule: Q01DX009 (ip), vehicle: saline sonified 95 % of control | [10] 90 % of control | dose: 200.0 mg/kg/injection, schedule: Q04DX003 (ip), vehicle: saline 95 % of control and 100 % of control | dose: 400.0 mg/kg/injection, schedule: Q04DX003 (ip), vehicle: saline 86 % of control

O=C1C2(Cl)C(Cl)=C(Cl)C1(Cl)C1(Cl)C(Cl)=C(Cl)C(=O)C21Cl (configuration not stated)
inactive: dose: 10.0 mg/kg/injection, schedule: Q01DX009 (ip), vehicle: saline with Tween-80 104 % of control | dose: 20.0 mg/kg/injection, schedule: Q01DX009 (ip), vehicle: saline with Tween-80 104 % of control | dose: 40.0 mg/kg/injection, schedule: Q01DX009 (ip), vehicle: saline with Tween-80 100 % of control

COC(=O)c1cc(=O)n(-c2ccc(OC)cc2)c(SC)n1
inactive: dose: 100.0 mg/kg/injection, schedule: Q04DX003 (ip), vehicle: saline with Tween-80 100 % of control | dose: 200.0 mg/kg/injection, schedule: Q04DX003 (ip), vehicle: saline with Tween-80 91 % of control

O=C(CCl)N1CC2CCC(CC2)C1
inactive: [5] 102 % of control | [6] 91 % of control

CC(CC(=O)O)C(C)(C#N)C(=O)O (configuration not stated)
inactive: [1] 102 % of control and 110 % of control | [2] 91 % of control and 96 % of control | [11] 96 % of control

Cc1cc(=O)[nH]c(=O)n1C1OC(CO)C(O)C1O (configuration not stated)
inactive: [1] 109 % of control | [2] 103 % of control | [11] 112 % of control

CCOC(=O)NN(C(=O)OCC)c1c(NC)n(C)c(=O)n(C)c1=O
inactive: dose: 50.0 mg/kg/injection, schedule: Q01DX009 (ip), vehicle: Klucel (hydroxypropylcellulose) (HPC) 100 % of control | dose: 100.0 mg/kg/injection, schedule: Q01DX009 (ip), vehicle: Klucel (hydroxypropylcellulose) (HPC) 106 % of control | dose: 200.0 mg/kg/injection, schedule: Q01DX009 (ip), vehicle: Klucel (hydroxypropylcellulose) (HPC) 89 % of control

Cc1no[n+]([O-])c1C(=O)NN
inactive: [12] 103 % of control | [13] 94 % of control | [14] 100 % of control

C1CC[C@H]2OCN[C@@H]2C1
inactive: dose: 200.0 mg/kg/injection, schedule: Q04DX002 (ip), vehicle: Klucel (hydroxypropylcellulose) (HPC) 118 % of control | dose: 400.0 mg/kg/injection, schedule: Q04DX002 (ip), vehicle: Klucel (hydroxypropylcellulose) (HPC) 115 % of control

ClCC1CCNCC1
inactive: [15] 100 % of control | dose: 100.0 mg/kg/injection, schedule: Q01DX009 (ip), vehicle: saline 100 % of control | dose: 200.0 mg/kg/injection, schedule: Q01DX009 (ip), vehicle: saline 99 % of control

CC(CCC(=O)O)(c1ccc(OC(=O)Nc2ccccc2Cl)cc1)c1ccc(OC(=O)Nc2ccccc2Cl)cc1
inactive: dose: 50.0 mg/kg/injection, schedule: Q01DX005 (ip), vehicle: saline with Tween-80 118 % of control | dose: 100.0 mg/kg/injection, schedule: Q01DX005 (ip), vehicle: saline with Tween-80 102 % of control | dose: 200.0 mg/kg/injection, schedule: Q01DX005 (ip), vehicle: saline with Tween-80 109 % of control

Cc1cccc(C(=O)NN)c1O
inactive: [3] 98 % of control | [4] 104 % of control | [5] 104 % of control | [6] 101 % of control

COc1cccc(N2CC3CC4C=CC3(C2)O4)c1 (configuration not stated)
inactive: [12] 98 % of control | [13] 100 % of control | [14] 97 % of control

CN(C)c1ccc(N=Cc2cc[n+](C)cc2)cc1
inactive: [7] 114 % of control | [8] 101 % of control | [9] 105 % of control | dose: 25.0 mg/kg/injection, schedule: Q04DX003 (ip), vehicle: saline 100 % of control | [15] 111 % of control | dose: 50.0 mg/kg/injection, schedule: Q04DX003 (ip), vehicle: saline 107 % of control | [10] 107 % of control
